According to publication PMC7747594, “Protease-activated receptor-2 ligands reveal orthosteric and allosteric mechanisms of receptor inhibition” (Communications Biology, 2020):
Square brackets hold non-standard residues; d marks the D form. Peptide text beside a SMILES is read from it. * marks the point of attachment. Orn = NCCC[C@H](N)C(=O)O; 2Furoyl = O=C(c1ccco1)*

Tests used:
hPAR2 [1] = target: T1, hPAR2 (Homo sapiens, UniProt P55085); test: Schild and allosteric model analysis of Ca^2+ mobilisation in CHO-hPAR2 cells (2f-LIGRL-NH2 or trypsin); format: cell-based
T1 sequence (P55085 26-397): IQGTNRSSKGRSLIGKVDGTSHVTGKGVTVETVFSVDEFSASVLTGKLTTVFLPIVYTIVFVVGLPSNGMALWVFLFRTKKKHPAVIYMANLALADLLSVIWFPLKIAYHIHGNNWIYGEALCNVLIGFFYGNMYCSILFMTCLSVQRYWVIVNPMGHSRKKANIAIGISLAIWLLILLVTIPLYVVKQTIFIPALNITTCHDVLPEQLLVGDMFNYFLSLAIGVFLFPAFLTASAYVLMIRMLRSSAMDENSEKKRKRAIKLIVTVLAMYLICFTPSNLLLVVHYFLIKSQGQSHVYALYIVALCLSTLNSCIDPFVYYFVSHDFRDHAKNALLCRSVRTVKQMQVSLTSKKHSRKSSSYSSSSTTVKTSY
Experimental: Cells were loaded with Fluo-8 NW calcium dye (AAT Bioquest) for 30 min at 37 °C before compounds in Hank’s balanced salt solution (HBSS, ThermoFisher Scientific) with 20 mM HEPES (ThermoFisher Scientific), 0.1% bovine serum albumin (BSA, Sigma) and 0.5% DMSO were added and simultaneously evaluated for changes in intracellular [Ca^2+] using FLIPR TETRA (Molecular Devices) to detect agonism. For each concentration, the difference between the maximum peak Ca^2+ response and baseline response is reported. […] Antagonism experiments were also carried out on 1321N1-PAR2[WT], 1321N1-PAR2[F154A], and 1321N1-PAR2[G157C] as described. Experiments with trypsin in 1321N1-hPAR2 cells were performed in the presence of 1 µM Vorapaxar (Chemtronica) to remove any interference of PAR1 activity. […] Antagonism experiments for CHO-hPAR2 and HT-29 cells were performed in 96-well plates at 30,000 cells/well. Cells were loaded with Fluo-3 AM calcium dye (Sigma-Aldrich) for 60 min at 37 °C in HBSS with 1% FBS, 0.2% pluronic acid, 20 mM HEPES and 2.5 mM probenecid prior to the addition of antagonist. The antagonist was pre-incubated for 60 min at 37 °C followed by the addition of bovine trypsin (30 nM) at EC80. Intracellular [Ca^2+] flux was measured using FLIPR TETRA (Molecular Devices) and the difference between the maximum peak Ca^2+ response and baseline response is reported.
(§1) Binding data were analysed using the One site – Fit Ki model in GraphPad Prism 8 (GraphPad Software) to determine binding affinity. Pharmacology in vitro potency data was analysed with a 4-parameter logistic fit using the equation y = Bottom + (Top − Bottom)/[…] where y is the response, x is the 10-logarithm of the drug concentration, Bottom is no response and Top is full response in GraphPad Prism 8 or Genedata Screener (Genedata). pEC50 and pIC50 data are presented as mean ± standard error of the mean (s.e.m.) derived from the number of independent experiments stated. Schild slope analysis was calculated using Graphpad Prism 8 Gaddum/Schild EC50 global fitting (shared model parameters between all data sets) competitive model. […] Schild slope quantifies the shifts in agonist response in the presence of antagonist, a Schild slope of 1 indicates the antagonist is competitive and extra-sum-of-squares F-test (p < 0.05) was used to compare the calculated Schild slope against a hypothetical Schild slope of 1. […] The relative activity was calculated using (EmaxEC50’)/(Emax’EC50) with the Hill slope help constant at 1. EC50’ and Emax’ denote the EC50 and Emax in the absence of allosteric modulator, while EC50 and Emax denote those measured in the presence of allosteric modulator. When the Hill slope = 1, the relative activity plot approaches an asymptote corresponding to the estimate of the γ value.

hPAR2 [2] = target: T1, hPAR2; test: Europium-tagged competition binding assay against Eu-tagged-2f-LIGRLO(dtpa)-NH2 on CHO-hPAR2 cells; set-up: expressed in transfected cells; host or cells: Flp-In CHO; conditions: determined with Eu-tagged-2f-LIGRLO(dtpa)-NH2; read-out: equilibrium dissociation constant pKA / pKB (converted)
Experimental: CHO-hPAR2 cells were seeded overnight in 384-well plate at 2.5 × 10^4 cells/well and blocked with 2% BSA for 60 min. […] Cells were washed 3× with PBS supplemented with 20 µM EDTA, 0.01% Tween and 0.2% BSA followed by addition of DELFIA Enhancement Solution (Perkin Elmer) for 90 min. Time-resolved fluorescence was measured with PHERAstar FS reader (BMG Labtech).
as §1

rat PAR2 = target: T2, rat PAR2 (Rattus norvegicus, UniProt Q63645); test: Ca^2+ flux assay, inhibition of SLIGRL-NH2 activation in rat KNRK cells; format: cell-based
T2 construct: a rat KNRK cell line with endogenous expression of rat PAR2; host or cells: rat KNRK cells
T2 sequence (Q63645 26-397): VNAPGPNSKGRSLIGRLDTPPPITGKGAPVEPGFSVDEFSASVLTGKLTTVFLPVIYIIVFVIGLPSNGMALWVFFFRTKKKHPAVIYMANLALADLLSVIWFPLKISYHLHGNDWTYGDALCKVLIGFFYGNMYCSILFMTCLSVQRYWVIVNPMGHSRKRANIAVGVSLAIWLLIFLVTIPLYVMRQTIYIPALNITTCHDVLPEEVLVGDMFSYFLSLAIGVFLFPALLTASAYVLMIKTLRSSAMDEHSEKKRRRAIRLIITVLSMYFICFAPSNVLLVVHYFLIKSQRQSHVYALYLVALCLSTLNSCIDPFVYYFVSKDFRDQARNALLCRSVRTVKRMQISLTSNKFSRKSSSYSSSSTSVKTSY

CC[C@H](C)[C@H](NC(=O)[C@H](CC(C)C)NC(=O)c1ccco1)C(=O)NCC(=O)N[C@@H](CCCNC(=N)N)C(=O)N[C@@H](CC(C)C)C(N)=O [2f-LIGRL-NH2, reference compound]
EC50 (hPAR2 [1]): 250 nM

CC[C@H](C)[C@H](NC(=O)[C@H](CC(C)C)NC(=O)c1ccco1)C(=O)NCC(=O)N[C@@H](CCCN=C(N)N)C(=O)N[C@@H](CC(C)C)C(=O)N[C@@H](CCCN)C(N)=O [2f-LIGRLO-NH2, reference compound] (2Furoyl-LIGRL[Orn]-NH2)
Kb (hPAR2 [2]): 794 nM

CCc1ccc2c(F)ccc(C(O)c3ncc[nH]3)n12 (stereo not drawn) [AZ0107]
IC50 (rat PAR2): 3160 nM
